According to patent publication US20200022957A1, “KINASE AND UBIQUITIN LIGASE INHIBITORS AND USES THEREOF” (ALDA S.R.L., priority 2015, published 2020):
Peptide text beside a SMILES is read from it. * marks the point of attachment. Cbz = O=C(OCc1ccccc1)*

Assays:
[1] = system: ATP7B H1069Q; assay: Morphological assay of ATP7B H1069Q exit from ER to Golgi in HeLa cells (fluorescence microscopy); type: cell-based, human; details: HeLa cells expressing ATP7B H1069Q-GFP; 24 h
Description: (§1) Cells were transfected with ATP7B-WT-GFP or ATP7B-H1069Q-GFP, incubated overnight with 200 μM BCS and/or drugs. Fixed cells were further labeled for TGN46 to mark and visualize the Golgi area under a confocal microscope. Under low copper conditions ATP7B-WT traffics to the Golgi from the ER, while ATP7B-H1069Q is retained within the ER. If the drug treatments induce the rescue of trafficking from the ER to the Golgi, the ATP7B-H1069Q-GFP fluorescence in the Golgi area increases. This is measured by quantifying (in 10 different microscopy fields in 100 cells) the increased in fluorescence of ATP7BWT-GFP or ATP7BH1069Q-GFP in the Golgi area (marked by TGN46) and normalizing this value to total cell fluorescence
CFBE or HeLa cells (in case of ATP7B) were transfected with constructs encoding the indicated mutant proteins and treated with JNKi II for 48 h.

[2] = system: ATP7B H1069Q; assay: Traffic-based screening of ATP7B H1069Q-GFP rescue in HEPG2 cells; type: cell-based, human; details: HEPG2 cells expressing ATP7B H1069Q-GFP; 24 h
Description: (§2) Transiently ATP7B H1069Q-GFP expressing HeLa cells (A), HEPG2 cells and (C) human primary hepatocytes (E) treated with the inhibitors for 24 hours, cells are processed for immunofluorescence assay to measure the arrival of the ATP7B wt and H1069Q mutant from the ER to Golgi compartment. A, C, E) Normalized Golgi fluorescence of ATP7B is measured and plotted (n >50 cells). B, D, F) EC50 and recue effect (%) compared to the level ATP7B WT Golgi fluorescence calculated from (A), (C) and (E) respectively. […] All the inhibitor drugs except SB202190 are in clinical trial for treatment of various other diseases.
as §1, with “cell fluorescence […]” for “cell fluorescence”

[3] = system: ATP7B H1069Q; assay: Traffic-based screening of ATP7B H1069Q-GFP rescue in human primary hepatocytes; type: cell-based; details: human primary hepatocytes expressing ATP7B H1069Q-GFP; 24 h
Description: as §2
as §1, with “cell fluorescence […]” for “cell fluorescence”

[4] = system: ATP7BH1069Q; assay: Copper estimation in HepG2 cells overexpressing ATP7BH1069Q; type: cell-based, human; details: 1 μM, 24 hours, 200 μM copper sulphate for the last 2 hours
Description: FIG. 14: The VX-745 and BIRB-796 correctors reduce Copper levels in cells expressing ATP7BH1069Q mutant. HepG2 cells overexpressing indicated ATP7B constructs were incubated with 1 μM each of VX-745, BIRB-796 for 24 hours, for the last 2 hours of incubation with the inhibitors 200 μM copper sulphate is added to the cells with or without 100 μM BCS (copper chelator) as indicated. Cells were incubated with HBSS for 3 hours before lysed and used for copper estimation. Fold change in copper normalized to control is plotted (n=4). Both VX-745 and BIRB-796 reduced Copper levels in ATP7BH1069Q expressing cells (BCS is used in the assay as a control for the sensitivity of the assay).
Cells are lysed in RIPA buffer (150 mM NaCl, 1% Triton X-100, 0.5% deoxycholic acid, 0.1% SDS, 20 mM Tris-HCl, pH 7.4). 500 μg of total protein lysate in 100 μl is taken for copper estimation using Copper assay kit (MAK127 sigma-aldrich) according to the manufacturer's protocol.
ATP7B protein functions in the excretion of copper out of cells and tissue. As ATP7B H1069Q trafficking to the plasma membrane is impaired, the cells cannot excrete the copper, which leads to higher level of intracellular copper. If the corrector drugs promote the correct localization of the mutant, then the copper should be excreted, leading to lower intracellular levels.

[5] = system: F508del-CFTR; assay: F508del-CFTR proteostasis by western blotting (ER band B / Golgi-processed band C) in CFBE cells; type: cell-based, human; details: for levels of band B and band C of F508del-CFTR: concentration series; for decrease in levels of F508del-CFTR: rapid, abolished by MLK3 downregulation
Description: Cells were washed three times in ice-cold Dulbecco's phosphate-buffered saline, and lysed in RIPA buffer (150 mM NaCl, 1% Triton X-100, 0.5% deoxycholic acid, 0.1% SDS, 20 mM Tris-HCl, pH 7.4), supplemented with protease inhibitor cocktail and phosphatase inhibitors. The lysates were clarified by centrifugation at 15000×g for 15 min, and the supernatants were resolved by SDS-PAGE. BCA Protein Assay kit (Pierce) was used to quantitate protein levels before loading. The western blots were decorated with appropriate antibodies and developed using ECL. The blots were then exposed to x-ray films and exposure time was varied to obtain optimal signal. The x-ray films were then scanned and the bands were quantitated using ImageJ gel-analysis tool. The protein concentration and the exposures used for quantitation of the blots were optimized to be in a linear range of detection.
Inventors then turned to experimental validation of the role of the CORE genes in the regulation of F508del-CFTR proteostasis. Experiments were carried out using a characterised biochemical assay that detects both the amount of core-glycosylated CFTR trapped in the ER (band B with Western blotting) and the amount of CFTR fully glycosylated in the Golgi (most of which presumably resides at the PM; band C with Western blotting).

[6] = system: proteasome; assay: Proteasome ZsProsensor-1 fluorescence in CFBE cells; type: cell-based, human; details: MG132 20 μg/ml for 3 h, positive control
Description: CFBE cells treated with MLK3 or JNK2 siRNA for 72 h were transfected with Proteasome ZsProsensor-1 for the final 24 h, and the levels Proteasome ZsProsensor-1 monitored by fluorescence microscopy. Treatment with MG132 (20 μg/ml for 3 h), a proteasomal inhibitor, was used as a positive control.

[7] = system: ATP7BH1069Q; assay: Immunofluorescence assay for correction of ATP7B: cells with ATP7BH1069Q signal in the ER, HeLa cells; type: cell-based, human; details: 24 h, SB202190 5 μM, VX-745 1 μM, SP600125 2 μM, Oxozeaenol 5 μM, 100 μM CuSO4 2 h
Description: (A) HeLa cells were infected with Ad-ATP7BWT-GFP (Chesi et al., 2016) or Ad-ATP7BH1069Q-GFP, incubated overnight with 200 μM BCS, and incubated for an additional 2 h with 100 μM CuSO4. In response to Cu, ATP7BWT traffics from the Golgi to PM and vesicle, while ATP7BH1069Q are retained within the ER under high Cu conditions. Addition of p38 inhibitor SB202190 (5 μM), VX-745(1 μM), JNK inhibitor SP600125 (2 μM) and Oxozeaenol (5 μM) (as indicated in corresponding panels) to the cells 24 h corrects ATP7BH1069Q from the ER to PM and vesicles (arrows) (B) Cells were treated as in panel A. The percentage of the cells (average±SD, n=50 fields) with an ATP7B signal in the ER, were calculated.
Cells were fixed with 4% paraformaldehyde in 0.2 M HEPES for 10 mins, permeabilized, labeled with primary and secondary antibodies, and examined with a ZEISS LSM 700 confocal microscope equipped with a 63×1.4 numerical aperture oil objective. The cells were scored based on the disappearance of ATP7B from the ER.

[8] = system: JNK; assay: phospho-c-jun levels by western blotting as a measure of JNK inhibition in CFBE cells; type: cell-based, human; details: 24 h, oxozeaenol 5 μM
Description: A. CFBE cells were treated with indicated JNK inhibitors for 24 h and processed for western blotting. The levels of phospho-c-jun as a measure of JNK inhibition was monitored. […] B. CFBE cells were treated with TAK1 or MLK3 siRNA as indicated and changes in F508del-CFTR proteostasis were monitored by western blotting.
C. CFBE cells were treated with 5 μM oxozeaenol for 48 h, or with MLK3 siRNA, or with both, and the correction of the F508del-CFTR folding/trafficking defect was monitored by changes in the levels of band C. There was no additive effect observed with the combination of MLK3 downregulation and oxozeaenol treatment. The quantitated band C levels are expressed as mean±SD (n>3). D. CFBE cells were treated with 5 μM oxozeaenol for 24 h, and the activity of the JNK pathway was measured by western blotting for phospho c-jun levels and F508del-CFTR. […] E. CFBE cells were treated with flunarizine (at concentrations 6.25-50 μM) targeting the CAMKK2 pathway for 48 h and the effect on F508del-CFTR proteostasis measured by western blotting. Treatment with flunarizine increased the levels of band C of F508del-CFTR. […] F. CFBE cells transiently transfected with the P-glycoprotein mutant (P-gp DY490), the NCC mutant (R948X), or the hERG mutant (G601S) were treated with JNKi II for 24 h, and the effect of the drug on their proteostasis monitored by western blotting. […]

[9] = system: F508del-CFTR; details: primary human bronchial epithelial cells (Trzcinska-Daneluti et al. 2012); cited from earlier work

Cc1ccc(-n2nc(C(C)(C)C)cc2NC(=O)Nc2ccc(OCCN3CCOCC3)c3ccccc23)cc1 [BIRB-796]
rescue of ATP7B H1069Q localization (ER exit to the Golgi compartment) [1]: potently rescue
rescue of ATP7B H1069Q (ER to Golgi) [2]: rescue H1069Q potently
rescue of ATP7B H1069Q (ER to Golgi) [3]: rescue H1069Q potently
Copper levels in ATP7BH1069Q expressing cells [4]: reduced

C=C(c1ccc(C(=O)O)cc1)c1cc2c(cc1C)C(C)(C)CCC2(C)C [Bexarotene]
rescue of ATP7B H1069Q localization (ER exit to the Golgi compartment) [1]: potently rescue
levels of band B and band C of F508del-CFTR ([5]; 48 h): robust increases

CC(=O)Nc1ccc(C(=O)NC(C)(C)C)cc1 [CPI-1189]
rescue of ATP7B H1069Q localization (ER exit to the Golgi compartment) [1]: potently rescue

C=C(C)[C@@H]1CCC(C)=C[C@H]1c1c(O)cc(CCCCC)cc1O [Cannabidiol]
rescue of ATP7B H1069Q localization (ER exit to the Golgi compartment) [1]: potently rescue

CC(O)C(=O)O.CN1CCN(c2ccc3nc(-c4c(N)c5c(F)cccc5[nH]c4=O)[nH]c3c2)CC1 [Dovitinib lactate]
levels of band B and band C of F508del-CFTR ([5]; 48 h): robust increases

Cc1cc(Nc2cc(N3CCN(C)CC3)nc(/C=C/c3ccccc3)n2)n[nH]1 [ENMD-2076]
rescue of ATP7B H1069Q localization (ER exit to the Golgi compartment) [1]: potently rescue

Fc1ccc(C(c2ccc(F)cc2)N2CCN(C/C=C/c3ccccc3)CC2)cc1 [Flunarizine]
correction of F508del-CFTR (levels of band C) ([5]; 48 h): increased

OO [H2O2]
F508del-CFTR levels ([5]; H2O2 at non-toxic concentrations, within a few minutes): marked drop

N#Cc1c(NC(=O)c2cccc3ccccc23)sc2c1CCCC2 [JNKi IX]
levels of band B and band C of F508del-CFTR ([5]; 48 h): robust increases

O=[N+]([O-])c1cnc(Sc2nc3ccccc3s2)s1 [JNKi XI]
levels of band B and band C of F508del-CFTR ([5]; 48 h): robust increases

COC(=O)[C@@]1(O)C[C@H]2O[C@]1(C)n1c3ccccc3c3c4c(c5c6ccccc6n2c5c31)C(=O)NC4 [K252a]
correction of F508del-CFTR (levels of band C) ([5]; 48 h): no clear effects

CC(C)C[C@@H](C=O)NC(=O)[C@H](CC(C)C)NC(=O)[C@H](CC(C)C)NC(=O)OCc1ccccc1 [MG132] (Cbz-Leu-Leu-Leu-aldehyde)
fluorescence levels of ZsProsensor-1 compared to untreated cells [6]: increases

COc1cc(O)c2c(c1)/C=C/C[C@H](O)[C@H](O)C(=O)/C=C\C[C@H](C)OC2=O [Oxozeaenol, (5Z)-7-oxozeaenol]
percentage of the cells exhibiting ATP7BH1069Q in the ER [7]: reduced
levels of band B and band C of F508del-CFTR ([5]; 48 h): markedly increased
phospho-c-jun levels [8]: reduced
correction of the F508del-CFTR proteostasis defect [9]: effective

Cc1ccc(Nc2nccc(N(C)c3ccc4c(C)n(C)nc4c3)n2)cc1S(N)(=O)=O [Pazopanib]
levels of band B and band C of F508del-CFTR ([5]; 48 h): robust increases

Oc1ccc(-c2nc(-c3ccncc3)c(-c3ccc(F)cc3)[nH]2)cc1 [SB202190]
percentage of the cells exhibiting ATP7BH1069Q in the ER [7]: reduced

O=C(O)c1ccc2c3c1cccc3c(=O)n1c3ccccc3nc21 [STO-609]
correction of F508del-CFTR (levels of band C) ([5]; 48 h): did not show any effect

O=c1ncn2nc(Sc3ccc(F)cc3F)ccc2c1-c1c(Cl)cccc1Cl [VX-745]
rescue of ATP7B H1069Q (ER to Golgi) [2]: rescue H1069Q potently
percentage of the cells exhibiting ATP7BH1069Q in the ER [7]: reduced
rescue of ATP7B H1069Q (ER to Golgi) [3]: rescue H1069Q potently
Copper levels in ATP7BH1069Q expressing cells [4]: reduced

Cc1ccc(NC(=O)C2(c3ccc4c(c3)OC(F)(F)O4)CC2)nc1-c1cccc(C(=O)O)c1 [VX-809]
level of ER-localised band B of F508del-CFTR ([5]; 48 h): limited increase
increase of band C levels over control ([5]; VX-809 as reference for correction): 4-5 fold

O=C1c2c(O)ccc(O)c2C(=O)c2c(NCCNCCO)ccc(NCCNCCO)c21 [mitoxantrone]
levels of band B and band C of F508del-CFTR ([5]; 48 h): potently increase

COc1ccc(CCN(C)CCCC(C#N)(c2ccc(OC)c(OC)c2)C(C)C)cc1OC (stereo not drawn) [verapamil]
correction of F508del-CFTR (levels of band C) ([5]; 48 h): did not show any effect

TGF-β
decrease in levels of F508del-CFTR [5]: 50%

TNF-α
decrease in levels of F508del-CFTR [5]: 50%
